Reference: patent publication US10485769B2, “Cholesteryl ester transfer protein (CETP) inhibition in the treatment of cancer” (KING ABDULLAH UNIVERSITY OF SCIENCE AND TECHNOLOGY, priority 2015, dated 2019)

Assays:
[1] = tested on: MCF-7 cells; experiment: Mitochondrial Outer Membrane Potential (MOMP) by flow cytometry; assay type: cell-based, human; details: 10 μM PL, AP; 100 mM H2O2 positive control; versus untreated cells
Protocol: FIG. 2: Mode of induction in MCF-7 cells after treatment with AP and PL was determined by measuring changes in MOMP and levels of apoptosis-associated proteins. The cells were incubated with 10 μM AP and PL for different time intervals to capture the timeline of apoptosis induction in MCF-7 cells. The changes in MOMP were measured using flow cytometry after treating MCF-7 cells with PL and AP for 1, 2 and 4 h (A). The alteration in expression of several apoptosis-associated proteins were determined using western blotting after incubating MCF-7 cells for 1, 2, 4, 6 h with PL (C, E) and AP (D. F).
The changes in Mitochondrial Outer Membrane Potential (MOMP) and proteins involved in the apoptotic cascade were assessed (FIG. 2).

[2] = tested on: MCF-7 CETP siRNA cells; experiment: MMP, caspase-3/7 activity and apoptosis in CETP knockdown MCF-7 cells; assay type: cell-based, human; details: 25 μM tamoxifen, 24 h, CETP knockout cells
Protocol: FIG. 10: The effect of CETP mRNA silencing on MMP (A), Capase-3/7 activity (B) and apoptosis in MCF-7 (C) and BJ (D) untransfected, cntl siRNA and CETP knockout cells after treatment with 10 μM PL or AP. Values represent the means±SD of three independent experiments.
FIG. 12: The effect of CETP mRNA knockout on Capase-3/7 activity (A) and apoptosis (B) in MCF-7 cntl siRNA and CETP knockout cells after treatment with 25 μM tamoxifen for 24 h. Values represent the means±SD of three independent experiments.
Since, as shown above, CETP is required for optimal growth of MCF-7 cells, we further hypothesized that CETP may help cancer cell to resist/escape apoptotic signals thus preventing cell death. Several apoptotic markers such as MOMP, phosphatidylserine exposure and caspase-3/7 activity were tested to establish a link between CETP and apoptosis.
Next, we intended to see if CETP silencing increased sensitivity of MCF-7 cells to apoptosis.
To test if effect of CETP knockout on apoptosis in MCF-7 is limited to AP, we treated the CETP knockout MCF-7 cells with tamoxifen (a known first line drug for breast cancer treatment). […] This observation was not limited to PL and AP as similar observations were made in CETP knockdown cells treated with tamoxifen (FIG. 12).

In the case of `OO` [H2O2], the “MOMP, fluorescence in the FL-2 channel” value [1] is reported as “lower fluorescent values”.
In the case of `CC/C(=C(\c1ccccc1)c1ccc(OCCN(C)C)cc1)c1ccccc1` [tamoxifen], the caspase-3/7 activity [2] is reported as “significant increase”.
